One experiment deals with dCK-C3S-S74E (Homo sapiens, UniProt P27707, C45S/C59S/C9S/S74E). Description: Isothermal titration calorimetry (ITC). Background: In ITC the heat of successive injections is recorded.
The target of a further experiment is recombinant human dCK (Homo sapiens, UniProt P27707). The experiment in a line: dCK kinetic assay (PK/LDH coupled, UTP as phosphate donor). The note with it: for effect on dCK enzymatic phosphorylation of gemcitabine: Supplementary Fig. 8; for effect on nucleoside phosphorylation by dCK: substrates 2′dC and gemcitabine, UTP, inhibitor/protein ratio 22.
Sequence of recombinant human dCK (P27707 whole entry): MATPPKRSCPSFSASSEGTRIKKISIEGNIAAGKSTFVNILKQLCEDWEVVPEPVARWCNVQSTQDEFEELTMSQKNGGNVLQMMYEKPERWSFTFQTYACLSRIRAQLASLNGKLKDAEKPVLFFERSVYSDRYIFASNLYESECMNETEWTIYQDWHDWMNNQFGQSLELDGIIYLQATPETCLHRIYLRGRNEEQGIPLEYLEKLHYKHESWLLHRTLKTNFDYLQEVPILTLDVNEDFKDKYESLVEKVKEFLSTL
For experiment [1], the target named is biotinylated dCK-C3S-S74E (Homo sapiens, UniProt P27707, C45S/C59S/C9S/S74E). The experiment in a line: Bio-layer interferometry kinetics, immobilised biotinylated dCK. (In general: In BLI a coated tip is dipped into the sample, and binding shifts an interference pattern.)
Sequence of biotinylated dCK-C3S-S74E (P27707 whole entry C9S/C45S/C59S/S74E): as the sequence (P27707 whole entry) above, with C9S, C45S, C59S, S74E counted along it
Description: BLI measurements were carried out using an Octet RED96 instrument (ForteBio). Biotinylated dCK was immobilised on SSA biosensors at a concentration of 5 μM after 1200 s. Free streptavidin sites were blocked by incubating with 10 μg ml^−1 biocytin (Sigma-Aldrich) for 100 s and 1% BSA for 1000 s. A control set of SSA biosensors were prepared in parallel by blocking the surface with biocytin instead of protein. A three-point concentration series were prepared for each compound and were measured using 60 s association and 140 s dissociation steps at 30 °C with a shake speed of 1000 r.p.m. All measurements were performed in binding buffer containing 20 mM HEPES, pH 7.5, 200 mM NaCl, 0.1% BSA and 1% DMSO. Each experiment was performed at least twice and K D, k on and k off values were determined using the global fitting procedure in the ForteBio Data Analysis Software.
Experiment [2] deals with CHO cells (constitutive dCK). Description: Cell proliferation assay (CellTiter-Blue), CHO. The class given is cell-based, Chinese hamster. The conditions noted are these: gemcitabine 0−1 µM, 5 days. In general terms: Resazurin is reduced to fluorescent resorufin, in cell work by metabolically active cells.
Description: (§1) At the end of incubation, 10 µl of CellTiter-Blue Reagent were added to each well. The absorbance was read at 590 nm. The effect of the drugs on cells was expressed as a percentage of proliferation compared to untreated cells. […] Drug synergy effects were analysed using Combenefit (Cancer Research Cambridge Institute), a software tool that enables the visualisation, analysis and quantification of drug combination effects[49]. The data from combination treatments were processed using three synergy reference models: highest single agent (HSA) model, Loewe additivity model and Bliss independence model for HRT18 and LnCAP cell lines.
In experiment [3] the test system is CHO dCK- cells (deficient dCK). Description: Cell proliferation assay (CellTiter-Blue), CHO dCK-. Type of experiment: cell-based, Chinese hamster. The conditions noted are these: gemcitabine 0−1 µM, 5 days.
Description: as §1
Experiment [4] has as its system CHO dCK Rescue cells (partially reconstituted dCK). Description: Cell proliferation assay (CellTiter-Blue), CHO dCK Rescue. Type of experiment: cell-based, Chinese hamster. The note with it: CHO dCK Rescue (low dCK expression); gemcitabine 0−1 µM; 5 days.
Description: At the end of incubation, 10 µl of CellTiter-Blue Reagent were added to each well. The absorbance was read at 590 nm. The effect of the drugs on cells was expressed as a percentage of proliferation compared to untreated cells.
CHO dCK deficient cells (CHO dCK-) were plated in 96-well plates at a density of 5000 cells per well and incubated overnight. The cells were transfected with the pMSCV insert free (vector control) and pMSCV-dCK respectively, using FuGENE 6 Transfection Reagent (Promega) according to manufacturer recommendations. Two days after transfection, cells were plated in 6-well plates and selected in 1 mg ml^-1 Geniticin-G418 (Gibco) for 2 weeks. The positive clones were picked and expanded to establish cell lines. The stable transfection cell clones, named as CHO dCK Rescue, were controlled by western blot analysis for dCK expression levels.
In experiment [5] the test system is LNCaP (prostate) cancer cell line. The experiment in a line: Cell proliferation assay (CellTiter-Blue), LNCaP. Type of experiment: cell-based, human.
Description: as §1
In experiment [6] the test system is A549 (lung) cancer cell line. Description: Cell proliferation assay (CellTiter-Blue), A549. The class given is cell-based, human. The conditions noted are these: gemcitabine 0−100 µM or masitinib 0−10 µM alone, 5 days.
Description: as §1
The subject of experiment [7] is HRT18 (colon) cancer cell line. The experiment in a line: Cell proliferation assay (CellTiter-Blue), HRT18. The class given is cell-based, human.
Description: as §1
The next experiment concerns the target T1, thymidine kinase (TK1) (Homo sapiens, UniProt P04183).
T1 sequence (P04183 2-234 limits assumed): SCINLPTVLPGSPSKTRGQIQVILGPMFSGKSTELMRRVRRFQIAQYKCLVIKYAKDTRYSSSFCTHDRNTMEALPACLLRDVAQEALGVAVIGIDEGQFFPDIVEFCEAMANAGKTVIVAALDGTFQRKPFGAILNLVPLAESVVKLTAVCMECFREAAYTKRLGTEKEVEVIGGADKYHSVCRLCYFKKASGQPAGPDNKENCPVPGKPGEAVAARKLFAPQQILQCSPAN
Description: TK1 kinetic assay (HTRF Transcreener ADP assay). The conditions noted are these: masitinib/protein ratios 1, 5, 10, 20, 40.

The target in experiment [8] is T2, uridine-cytidine kinase 1 (UCK1) (Homo sapiens, UniProt Q9HA47).
T2 construct: made in house; host or cells: E. coli BL21 DE3
T2 sequence (Q9HA47 1-277): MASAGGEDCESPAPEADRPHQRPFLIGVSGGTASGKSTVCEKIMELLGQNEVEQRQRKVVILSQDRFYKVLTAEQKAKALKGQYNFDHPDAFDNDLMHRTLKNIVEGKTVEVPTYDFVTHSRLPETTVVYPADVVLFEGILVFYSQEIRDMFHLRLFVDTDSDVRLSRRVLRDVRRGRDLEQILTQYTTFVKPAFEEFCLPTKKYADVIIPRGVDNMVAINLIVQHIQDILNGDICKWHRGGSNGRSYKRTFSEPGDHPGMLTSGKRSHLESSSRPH
The experiment in a line: UCK1 kinetic assay (PK/LDH coupled, ATP as phosphate donor). The conditions noted are these: masitinib/protein ratios 0, 1, 10, 100. Type of experiment: biochemical. The protocol: Kinetic analyses were performed using a spectrophotometric continuous enzymatic-coupled assay using pyruvate kinase (PK) and lactate dehydrogenase (LDH). […] . […] All assays were performed in triplicate and each experiment was performed at least twice. The data are presented as mean ± s.d. The results were plotted as kinetics and the velocity was determined for each condition as the slope of the linear range of the curve. […] . K m (Michaelis−Menten constant) and V max (maximal velocity) values were determined using PRISM software (GraphPad Software Inc.) by fitting the experimental data according to the Michaelis−Menten approximation defined as Equation 1.1 V=Vmax⋅S∕Km+S

SMILES strings stand for the structures. “Also recorded” adds a separate entry of the source.

Sequence of dCK-C3S-S74E (P27707 whole entry C9S/C45S/C59S/S74E): as the sequence (P27707 whole entry) above, with C9S, C45S, C59S, S74E counted along it
Description for recombinant human dCK: Kinetic analyses were performed using a spectrophotometric continuous enzymatic-coupled assay using pyruvate kinase (PK) and lactate dehydrogenase (LDH). […] All measurements were performed on a BMG Labtech Pherastar FS apparatus. All assays were performed in triplicate and each experiment was performed at least twice. The data are presented as mean ± s.d. The results were plotted as kinetics and the velocity was determined for each condition as the slope of the linear range of the curve. […] K m (Michaelis−Menten constant) and V max (maximal velocity) values were determined using PRISM software (GraphPad Software Inc.) by fitting the experimental data according to the Michaelis−Menten approximation defined as Equation 1.1 V=Vmax⋅S∕Km+S
Description for thymidine kinase (TK1): ADP and ADP-d2 compete for the binding to a monoclonal anti-ADP antibody labelled with Europium (Eu^3+) cryptate. […] The obtained signal is inversely proportional to the concentration of ADP in the sample. All measurements were performed on a BMG Labtech Pherastar FS apparatus.

By Kd is commonly meant the constant that tells how readily two partners part at equilibrium. A low value points to higher affinity. With `Nc1ncn([C@H]2C[C@H](O)[C@@H](CO)O2)c(=O)n1` [Decitabine, decitabine], the affinity at dCK-C3S-S74E, expressed as Kd, was 31 ± 5.4 µM.

As to `CNC(=O)c1ccccc1Sc1ccc2c(/C=C/c3ccccn3)n[nH]c2c1` [axitinib], the “effect on dCK enzymatic phosphorylation of gemcitabine” value (“effect … of gemcitabine” for short) at recombinant human dCK is given as “none of the compounds showed an activation effect”.

On to `Cc1ccc(NC(=O)c2ccc(CN3CC[C@H](N(C)C)C3)c(C(F)(F)F)c2)cc1Nc1nccc(-c2cncnc2)n1` [bafetinib], for which, on recombinant human dCK, the “effect on nucleoside phosphorylation by dCK” value (from here on “effect … by dCK”) is on record as “most active”.

Regarding `COc1cc(Nc2c(C#N)cnc3cc(OCCCN4CCN(C)CC4)c(OC)cc23)c(Cl)cc1Cl` [bosutinib], the “effect … by dCK” value on recombinant human dCK was “most active”.

As for `C#Cc1cccc(Nc2ncnc3cc(OCCOC)c(OCCOC)cc23)c1` [erlotinib], the “effect … of gemcitabine” value on recombinant human dCK is given as “none of the compounds showed an activation effect”.

Regarding `Nc1ccn([C@@H]2O[C@H](CO)[C@@H](O)C2(F)F)c(=O)n1` [gemcitabine], the “BLI signal for substrate binding” value in [1] is recorded as “could not detect any signal”. The sensitivity to gemcitabine result is “strong sensitivity to gemcitabine” in [2], “did not show any anti-proliferative effect” in [3] and “restored the capacity of CHO cells to respond to gemcitabine treatment” in experiment [4]. For the same compound, the “anti-proliferative effect, single agent” value in experiment [5] (LNCaP, gemcitabine 0−100 µM or masitinib 0−10 µM alone, 5 days) was “could not induce strong anti-proliferative effects”; in experiment [6], “could not induce strong anti-proliferative effects”; in [7] (gemcitabine 0−100 µM or masitinib 0−10 µM alone, 5 days), “could not induce strong anti-proliferative effects”. The compound also displayed a Kd on dCK-C3S-S74E of 22.2 µM.

`Cc1ccc(NC(=O)c2ccc(CN3CCN(C)CC3)cc2)cc1Nc1nc(-c2cccnc2)cs1` [masitinib]: the “drug synergy with gemcitabine (Combenefit: HSA, Loewe, Bliss models)” value in [5] (LnCAP) and in experiment [7] was “synergetic effect” each time. Further, the “modulation of TK1 enzymatic activity” value on thymidine kinase (TK1) is reported as “didn’t produce an enzymatic modulation; also recorded: did not observe an enzymatic activation”. For the same compound, the “modulation of UCK1 enzymatic activity” value in experiment [8] is “didn’t produce an enzymatic modulation; also recorded: did not observe an enzymatic activation”.

As to `CN[C@@H]1C[C@H]2O[C@@](C)([C@@H]1OC)n1c3ccccc3c3c4c(c5c6ccccc6n2c5c31)C(=O)NC4` [staurosporine], the “effect … of gemcitabine” value on recombinant human dCK is on record as “none of the compounds showed an activation effect”.

As for `Cc1cc(Nc2cc(N3CCN(C)CC3)nc(Sc3ccc(NC(=O)C4CC4)cc3)n2)[nH]n1` [tozasertib], the “effect … by dCK” value at recombinant human dCK was “most active”.

For the origin of these results see publication PMC5681654, “Dual protein kinase and nucleoside kinase modulators for rationally designed polypharmacology” (Nature Communications, 2017).
